ChEMBL document CHEMBL5226378, “Transformation of Renieramycin M into Renieramycins T and S by Intramolecular Photoredox Reaction of 7-Methoxy-6-methyl-1,2,3,4-tetrahydroisoquinoline-5,8-dione Derivatives” (J Nat Prod, 2023)
pIC50: −log10 of the molar value.

Tests used:
[1] = tested on: DU-145; assay: Cytotoxicity against human DU-145 cells assessed as inhibition of cell growth incubated for 4 days by CCK-8 assay; format: functional, cell-based; conditions: DU-145, 96 h
[2] = tested on: HCT-116; assay: Cytotoxicity against human HCT-116 cells assessed as inhibition of cell growth incubated for 4 days by CCK-8 assay; format: functional, cell-based; conditions: HCT-116, 96 h

COC1=C(C)C(=O)C2=C(C1=O)[C@@H]1[C@@H]3CC4=C(C(=O)C(O)=C(C)C4=O)[C@H](CNC(=O)C(C)=O)N3[C@@H](C#N)[C@H](C2)N1C was tested, and the pIC50 [1] was 6.17 and the pIC50 [2] was 5.92.

For C/C=C(/C)C(=O)OC[C@H]1c2c(c(O)c(C)c3c2OCO3)C[C@H]2[C@H]3C4=C(C[C@@H]([C@H](C#N)N12)N3C)C(=O)C(C)=C(OC)C4=O, the pIC50 [1] was 7.30 and the pIC50 [2] was 7.09.

C/C=C(/C)C(=O)OC[C@H]1c2c(c(OC(C)=O)c(C)c3c2OCO3)C[C@H]2[C@H]3C4=C(C[C@@H]([C@H](C#N)N12)N3C)C(=O)C(C)=C(OC)C4=O showed a pIC50 [1] of 7.49 and a pIC50 [2] of 7.49.

With C/C=C(/C)C(=O)OC[C@H]1c2c(c(O)c(C)c3c2OCO3)C[C@H]2CN(C)C[C@H](C#N)N21 the pIC50 [1] was under 4.70 and the pIC50 [2] was under 4.70.

COC1=C(C)C(=O)C2=C(C1=O)[C@@H]1[C@@H]3Cc4c(O)c(C)c5c(c4[C@H](CNC(=O)C(C)=O)N3[C@@H](C#N)[C@H](C2)N1C)OCO5 gave a pIC50 [1] of 6.85 and a pIC50 [2] of 6.64.

COC1=C(C)C(=O)C2=C(C1=O)[C@@H]1[C@@H]3Cc4c(OC(C)=O)c(C)c5c(c4[C@H](CNC(=O)C(C)=O)N3[C@@H](C#N)[C@H](C2)N1C)OCO5 was tested, and the pIC50 [1] was 8.22 and the pIC50 [2] was 7.57.

For C/C=C(/C)C(=O)OC[C@H]1C2=C(C[C@H]3[C@H]4C5=C(C[C@@H]([C@H](C#N)N13)N4C)C(=O)C(C)=C(OC)C5=O)C(=O)C(C)=C(O)C2=O [RENIERAMYCIN S], the pIC50 [1] was 7.14 and the pIC50 [2] was 6.80.

With COC1=C(C)C(=O)C2=C(C1=O)[C@@H]1[C@@H]3CC4=C(C(=O)C(OC)=C(C)C4=O)[C@H](CNC(=O)C(C)=O)N3[C@@H](C#N)[C@H](C2)N1C [SAFRAMYCIN A] the pIC50 [1] was 8.10 and the pIC50 [2] was 7.70.

In the case of C/C=C(/C)C(=O)OC[C@H]1C2=C(C[C@H]3[C@H]4C5=C(C[C@@H]([C@H](C#N)N13)N4C)C(=O)C(C)=C(OC)C5=O)C(=O)C(C)=C(OC)C2=O [RENIERAMYCIN M], the pIC50 [1] was 8.40 and the pIC50 [2] was 7.74.

With C/C=C(/C)C(=O)OC[C@H]1C2=C(C[C@H]3CN(C)C[C@H](C#N)N31)C(=O)C(C)=C(OC)C2=O the pIC50 [1] was 5.14 and the pIC50 [2] was 5.66.
